Assay results taken from ChEMBL document CHEMBL1201862, “PubChem BioAssay data set” (2004).
Active and inactive are the calls of the source.

How the values were obtained:
[1] = biological target: Cytochrome P450 2C19 (Homo sapiens, UniProt P33261); test: Cytochrome panel assay with activity outcomes. Panel member name: p450-cyp2c19 Compounds with AC50 equal or less than 10 uM are considered active; assay type: functional
[2] = biological target: Cytochrome P450 2D6 (Homo sapiens, UniProt P10635);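 note: CYP2D6 member of a cytochrome P450 panel assay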
Chain of Cytochrome P450 2D6 (P10635 whole entry): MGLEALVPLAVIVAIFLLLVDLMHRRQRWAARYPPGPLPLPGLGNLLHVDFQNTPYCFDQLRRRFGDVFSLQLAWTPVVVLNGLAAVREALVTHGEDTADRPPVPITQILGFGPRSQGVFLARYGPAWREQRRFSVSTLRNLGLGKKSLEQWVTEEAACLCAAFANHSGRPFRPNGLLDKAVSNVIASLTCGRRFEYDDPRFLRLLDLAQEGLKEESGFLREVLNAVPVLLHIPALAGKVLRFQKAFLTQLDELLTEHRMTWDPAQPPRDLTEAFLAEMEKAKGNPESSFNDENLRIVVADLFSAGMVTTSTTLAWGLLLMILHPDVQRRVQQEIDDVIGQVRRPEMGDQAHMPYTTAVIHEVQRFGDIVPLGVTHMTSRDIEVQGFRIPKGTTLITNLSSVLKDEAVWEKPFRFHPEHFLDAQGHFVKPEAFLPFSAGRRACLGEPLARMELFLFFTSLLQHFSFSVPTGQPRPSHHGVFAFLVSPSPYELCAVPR

[3] = biological target: T1, Fatty acid synthase (Homo sapiens, UniProt P49327); test: inhibition of human FAS-TE enzyme activity – biochemical, endpoint fluorescence intensity, uHTS hits, dose response (AID 624327); assay type: functional;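 note: fluorescence from hydrolysis of an O-methyl fluorescein acyl ester substrate by the enzyme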
T1 sequence (P49327 whole entry, the tested form may be a part): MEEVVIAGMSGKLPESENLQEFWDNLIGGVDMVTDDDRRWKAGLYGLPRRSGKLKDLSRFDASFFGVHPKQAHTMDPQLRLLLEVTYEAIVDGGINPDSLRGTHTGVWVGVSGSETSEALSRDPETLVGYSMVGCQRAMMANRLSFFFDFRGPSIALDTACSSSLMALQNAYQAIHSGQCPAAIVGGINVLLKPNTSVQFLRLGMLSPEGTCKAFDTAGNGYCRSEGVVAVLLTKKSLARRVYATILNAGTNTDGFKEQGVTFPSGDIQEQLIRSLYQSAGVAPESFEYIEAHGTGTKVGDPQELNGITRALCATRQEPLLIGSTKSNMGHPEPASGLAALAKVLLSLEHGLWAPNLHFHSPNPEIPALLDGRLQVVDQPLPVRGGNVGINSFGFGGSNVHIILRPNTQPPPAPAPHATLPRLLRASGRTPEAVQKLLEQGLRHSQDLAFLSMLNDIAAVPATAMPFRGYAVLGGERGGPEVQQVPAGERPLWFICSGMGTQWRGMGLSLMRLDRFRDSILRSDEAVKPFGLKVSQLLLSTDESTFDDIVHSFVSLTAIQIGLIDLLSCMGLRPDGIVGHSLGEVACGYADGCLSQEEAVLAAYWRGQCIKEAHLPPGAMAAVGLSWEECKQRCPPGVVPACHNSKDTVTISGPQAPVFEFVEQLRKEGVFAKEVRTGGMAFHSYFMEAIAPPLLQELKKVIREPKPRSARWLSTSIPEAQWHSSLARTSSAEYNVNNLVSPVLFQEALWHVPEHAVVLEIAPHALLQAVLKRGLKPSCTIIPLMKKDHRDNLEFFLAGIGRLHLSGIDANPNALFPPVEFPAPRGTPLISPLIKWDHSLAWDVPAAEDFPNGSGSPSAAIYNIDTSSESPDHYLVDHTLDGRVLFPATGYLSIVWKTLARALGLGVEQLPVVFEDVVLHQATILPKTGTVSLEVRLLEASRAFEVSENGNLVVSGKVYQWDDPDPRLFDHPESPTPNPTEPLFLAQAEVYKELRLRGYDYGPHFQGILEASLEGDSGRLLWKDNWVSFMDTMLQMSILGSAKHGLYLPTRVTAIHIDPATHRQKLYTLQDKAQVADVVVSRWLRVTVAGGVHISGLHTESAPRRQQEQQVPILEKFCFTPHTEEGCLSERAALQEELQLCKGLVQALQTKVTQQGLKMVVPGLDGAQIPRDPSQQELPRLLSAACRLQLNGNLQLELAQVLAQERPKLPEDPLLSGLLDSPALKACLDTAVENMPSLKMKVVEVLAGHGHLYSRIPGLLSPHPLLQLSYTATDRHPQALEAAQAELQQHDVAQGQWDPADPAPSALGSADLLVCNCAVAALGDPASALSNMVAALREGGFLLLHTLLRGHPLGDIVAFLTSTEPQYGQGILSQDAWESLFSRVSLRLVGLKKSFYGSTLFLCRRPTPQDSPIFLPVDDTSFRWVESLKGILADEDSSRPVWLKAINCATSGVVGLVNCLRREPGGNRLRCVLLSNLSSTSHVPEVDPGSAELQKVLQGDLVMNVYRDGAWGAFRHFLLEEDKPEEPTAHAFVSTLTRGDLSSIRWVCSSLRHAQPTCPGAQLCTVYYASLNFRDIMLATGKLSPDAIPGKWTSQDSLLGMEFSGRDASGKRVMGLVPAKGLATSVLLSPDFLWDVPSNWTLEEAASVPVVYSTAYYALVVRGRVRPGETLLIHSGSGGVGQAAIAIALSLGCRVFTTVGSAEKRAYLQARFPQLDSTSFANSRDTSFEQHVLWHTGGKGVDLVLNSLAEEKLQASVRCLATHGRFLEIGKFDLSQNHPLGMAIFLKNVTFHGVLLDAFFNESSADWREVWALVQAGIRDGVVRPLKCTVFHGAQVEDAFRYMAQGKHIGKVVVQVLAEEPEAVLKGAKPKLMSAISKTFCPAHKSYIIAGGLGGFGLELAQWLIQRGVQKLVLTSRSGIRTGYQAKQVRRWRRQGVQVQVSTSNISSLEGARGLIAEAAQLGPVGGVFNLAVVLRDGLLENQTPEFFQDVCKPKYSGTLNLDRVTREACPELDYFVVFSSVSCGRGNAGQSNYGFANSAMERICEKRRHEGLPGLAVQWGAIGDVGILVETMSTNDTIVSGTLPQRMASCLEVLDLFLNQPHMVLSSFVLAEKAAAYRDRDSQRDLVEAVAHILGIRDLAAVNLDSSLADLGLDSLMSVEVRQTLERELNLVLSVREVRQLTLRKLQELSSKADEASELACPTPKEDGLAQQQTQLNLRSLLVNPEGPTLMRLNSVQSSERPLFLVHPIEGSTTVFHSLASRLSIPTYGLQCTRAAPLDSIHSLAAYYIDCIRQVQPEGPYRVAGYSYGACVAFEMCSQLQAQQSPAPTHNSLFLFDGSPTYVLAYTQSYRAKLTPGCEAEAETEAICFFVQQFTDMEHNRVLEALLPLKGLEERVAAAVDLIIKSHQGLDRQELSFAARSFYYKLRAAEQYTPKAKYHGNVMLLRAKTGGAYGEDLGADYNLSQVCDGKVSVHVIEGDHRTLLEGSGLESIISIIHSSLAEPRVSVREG

[4] = inhibition of ARNT PAS-B/TACC3 complex formation – biochemical, AlphaScreen, cherry-picked samples, confirmation (AID 651703); assay type: functional, Homo sapiens;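 note: His-tagged ARNT PAS-B domain paired with GST-TACC3 E629A dimer coactivator fragment; potency of inhibitors that break up the complex and lower AlphaScreen signal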
[5] = biological target: T1, Fatty acid synthase; test: inhibition of human FAS-TE enzyme activity – biochemical, kinetic fluorescence intensity, dose response (AID 624326); assay type: functional;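 note: rate of fluorescence rise from hydrolysis of a fluorogenic O-methyl fluorescein ester substrate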
[6] = biological target: Glucose-6-phosphate 1-dehydrogenase (Homo sapiens, UniProt P11413); test: inhibition of Homo sapiens G6PD, dose series – biochemical, fluorescence, selectivity assay for P. falciparum G6PD inhibitor project, dose response (AID 504792); assay type: functional
Chain of Glucose-6-phosphate 1-dehydrogenase (P11413 whole entry): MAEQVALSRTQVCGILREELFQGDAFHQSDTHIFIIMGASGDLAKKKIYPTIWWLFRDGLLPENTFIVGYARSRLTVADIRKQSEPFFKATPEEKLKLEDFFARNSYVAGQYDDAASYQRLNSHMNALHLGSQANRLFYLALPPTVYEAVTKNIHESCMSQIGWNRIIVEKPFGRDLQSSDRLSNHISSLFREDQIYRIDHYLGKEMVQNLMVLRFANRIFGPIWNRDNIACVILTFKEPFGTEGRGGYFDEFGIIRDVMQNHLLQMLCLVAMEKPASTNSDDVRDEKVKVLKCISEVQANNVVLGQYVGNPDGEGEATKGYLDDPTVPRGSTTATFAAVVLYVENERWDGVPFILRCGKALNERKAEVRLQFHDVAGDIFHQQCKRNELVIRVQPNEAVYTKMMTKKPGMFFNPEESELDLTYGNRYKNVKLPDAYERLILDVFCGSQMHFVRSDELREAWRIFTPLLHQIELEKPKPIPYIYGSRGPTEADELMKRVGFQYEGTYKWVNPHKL

[7] = biological target: T2, DNA repair and recombination protein RAD54-like (Homo sapiens, UniProt Q92698); test: RAD54 Holliday junction migration blockers – biochemical, fluorescence, cherry-picked samples, dose series, confirmation (AID 651657); assay type: functional
T2 sequence (Q92698 whole entry): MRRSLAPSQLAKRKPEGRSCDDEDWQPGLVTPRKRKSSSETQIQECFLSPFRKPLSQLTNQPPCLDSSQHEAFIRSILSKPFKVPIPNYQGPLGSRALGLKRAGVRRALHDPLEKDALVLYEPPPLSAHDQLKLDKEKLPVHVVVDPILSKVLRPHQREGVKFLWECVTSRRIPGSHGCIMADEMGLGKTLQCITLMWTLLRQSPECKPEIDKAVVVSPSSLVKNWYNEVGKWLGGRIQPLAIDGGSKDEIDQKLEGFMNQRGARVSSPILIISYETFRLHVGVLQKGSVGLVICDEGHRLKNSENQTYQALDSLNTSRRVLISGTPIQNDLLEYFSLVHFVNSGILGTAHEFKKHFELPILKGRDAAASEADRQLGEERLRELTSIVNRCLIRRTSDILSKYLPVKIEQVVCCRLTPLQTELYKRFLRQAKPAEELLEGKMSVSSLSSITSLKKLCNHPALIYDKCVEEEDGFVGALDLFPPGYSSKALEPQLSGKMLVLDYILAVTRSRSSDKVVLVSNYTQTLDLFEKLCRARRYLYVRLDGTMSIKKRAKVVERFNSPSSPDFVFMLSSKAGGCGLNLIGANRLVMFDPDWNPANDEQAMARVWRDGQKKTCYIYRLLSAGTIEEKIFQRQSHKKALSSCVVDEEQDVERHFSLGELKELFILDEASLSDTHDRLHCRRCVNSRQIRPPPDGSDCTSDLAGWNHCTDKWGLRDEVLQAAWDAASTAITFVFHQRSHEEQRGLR

[8] = biological target: Cytochrome P450 3A4 (Homo sapiens, UniProt P08684);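 note: CYP3A4 tested as one member of a cytochrome P450 panel screen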
Chain of Cytochrome P450 3A4 (P08684 whole entry): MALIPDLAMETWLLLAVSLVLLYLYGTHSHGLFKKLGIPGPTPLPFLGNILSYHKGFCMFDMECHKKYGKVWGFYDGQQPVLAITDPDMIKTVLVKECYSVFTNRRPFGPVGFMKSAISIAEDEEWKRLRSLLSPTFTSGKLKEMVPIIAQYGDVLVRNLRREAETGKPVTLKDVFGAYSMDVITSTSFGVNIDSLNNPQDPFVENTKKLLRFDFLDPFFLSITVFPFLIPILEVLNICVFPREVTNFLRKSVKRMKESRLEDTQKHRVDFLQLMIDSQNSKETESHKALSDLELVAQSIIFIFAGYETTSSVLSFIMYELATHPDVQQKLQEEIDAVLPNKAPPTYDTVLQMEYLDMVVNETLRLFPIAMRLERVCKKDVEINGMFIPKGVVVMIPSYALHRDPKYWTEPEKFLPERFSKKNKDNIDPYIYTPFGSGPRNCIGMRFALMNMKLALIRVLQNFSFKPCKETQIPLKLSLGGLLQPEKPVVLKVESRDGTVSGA

[9] = biological target: Ras and Rab interactor 1/Tyrosine-protein kinase ABL1 (Homo sapiens, UniProt P00519+Q13671); assay type: functional;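 note: biochemical TR-FRET dose-response test measuring inhibition of binding between Rin1 and Abl proteins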
[10] = biological target: T3, Zinc finger protein mex-5 (Caenorhabditis elegans, UniProt Q9XUB2); test: potency of MEX-5 RNA-binding blockers – biochemical, C. elegans, fluorescence polarization, dose response (AID 1960)
T3 sequence (Q9XUB2 whole entry): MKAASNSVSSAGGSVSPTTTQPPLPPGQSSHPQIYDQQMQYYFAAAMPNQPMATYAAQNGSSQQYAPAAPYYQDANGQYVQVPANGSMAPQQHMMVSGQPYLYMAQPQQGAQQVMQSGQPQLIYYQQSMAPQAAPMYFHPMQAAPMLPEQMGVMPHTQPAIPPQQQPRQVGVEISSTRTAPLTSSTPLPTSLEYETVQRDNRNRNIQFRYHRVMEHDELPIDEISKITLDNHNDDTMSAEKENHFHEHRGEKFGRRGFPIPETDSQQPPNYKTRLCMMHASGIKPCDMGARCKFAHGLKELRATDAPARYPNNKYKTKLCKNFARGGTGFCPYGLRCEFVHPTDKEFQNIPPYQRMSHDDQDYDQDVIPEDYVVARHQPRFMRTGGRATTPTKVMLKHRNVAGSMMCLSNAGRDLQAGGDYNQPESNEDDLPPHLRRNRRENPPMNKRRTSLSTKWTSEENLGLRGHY

[11] = biological target: Cytochrome P450 2C9 (Homo sapiens, UniProt P11712)
Chain of Cytochrome P450 2C9 (P11712 whole entry): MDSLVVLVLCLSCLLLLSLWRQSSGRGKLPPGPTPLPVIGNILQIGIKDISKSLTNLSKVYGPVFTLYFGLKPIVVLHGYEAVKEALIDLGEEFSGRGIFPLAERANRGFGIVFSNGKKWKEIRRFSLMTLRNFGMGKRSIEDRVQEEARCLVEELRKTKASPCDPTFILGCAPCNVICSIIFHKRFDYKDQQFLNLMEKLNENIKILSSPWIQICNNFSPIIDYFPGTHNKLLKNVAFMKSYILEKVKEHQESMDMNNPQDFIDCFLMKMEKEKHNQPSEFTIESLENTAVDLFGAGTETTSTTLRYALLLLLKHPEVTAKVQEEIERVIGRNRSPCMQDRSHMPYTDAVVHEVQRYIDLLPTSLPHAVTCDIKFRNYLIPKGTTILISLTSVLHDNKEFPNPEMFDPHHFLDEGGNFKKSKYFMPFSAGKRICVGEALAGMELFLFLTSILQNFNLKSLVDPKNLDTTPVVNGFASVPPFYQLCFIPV

[12] = biological target: T4, Corticotropin-releasing factor receptor 2/Corticotropin-releasing factor-binding protein (Homo sapiens, UniProt P24387+Q13324); test: activators of CRF receptor 2 with binding protein – uHTS hits, confirmation (AID 602473); assay type: functional; settings: read-out: EC50_Mean
T4 sequence (Q13324 whole entry): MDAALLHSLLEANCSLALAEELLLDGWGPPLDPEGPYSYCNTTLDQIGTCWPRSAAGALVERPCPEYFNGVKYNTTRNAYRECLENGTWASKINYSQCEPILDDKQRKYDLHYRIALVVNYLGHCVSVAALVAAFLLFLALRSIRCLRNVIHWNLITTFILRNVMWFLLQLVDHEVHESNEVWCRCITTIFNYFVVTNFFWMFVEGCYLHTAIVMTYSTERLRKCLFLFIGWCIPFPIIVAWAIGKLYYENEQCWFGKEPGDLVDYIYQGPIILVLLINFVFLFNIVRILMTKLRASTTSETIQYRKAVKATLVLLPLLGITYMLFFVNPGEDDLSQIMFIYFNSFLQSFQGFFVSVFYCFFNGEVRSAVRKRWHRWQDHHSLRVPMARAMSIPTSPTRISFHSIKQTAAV
T4 sequence (P24387 whole entry): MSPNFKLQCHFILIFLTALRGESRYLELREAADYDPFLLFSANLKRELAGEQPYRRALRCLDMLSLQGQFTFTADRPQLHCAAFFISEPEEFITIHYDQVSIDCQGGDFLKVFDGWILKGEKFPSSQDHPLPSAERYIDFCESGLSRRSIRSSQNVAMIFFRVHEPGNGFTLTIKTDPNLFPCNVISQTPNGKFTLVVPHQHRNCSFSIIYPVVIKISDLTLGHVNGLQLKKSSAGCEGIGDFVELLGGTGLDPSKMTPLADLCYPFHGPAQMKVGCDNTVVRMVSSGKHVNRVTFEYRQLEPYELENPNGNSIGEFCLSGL

[13] = biological target: T5, RNA-binding protein pos-1 (Caenorhabditis elegans, UniProt G5EF15); test: disruptors of C. elegans POS-1 RNA interaction – biochemical, fluorescence polarization, dose response (AID 1964);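 note: purified POS-1 fused to maltose binding protein made in E. coli; potency of compounds blocking POS-1 binding to fluorescent RNA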
T5 sequence (G5EF15 whole entry): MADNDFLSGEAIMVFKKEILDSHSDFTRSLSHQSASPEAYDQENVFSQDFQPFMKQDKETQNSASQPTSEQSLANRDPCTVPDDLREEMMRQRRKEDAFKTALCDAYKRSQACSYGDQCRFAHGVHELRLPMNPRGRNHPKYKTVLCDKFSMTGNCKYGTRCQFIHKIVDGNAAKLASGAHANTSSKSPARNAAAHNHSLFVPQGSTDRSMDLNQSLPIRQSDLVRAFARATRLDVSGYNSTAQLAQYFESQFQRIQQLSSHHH

[14] = biological target: T6, Endoribonuclease toxin MazF (Escherichia coli K-12, UniProt P0AE70); test: activation of MazEF endoribonuclease cleavage – biochemical, fluorescence, single-stranded RNA substrate, uHTS hits, dose response (AID 588481); assay type: functional
T6 sequence (P0AE70 whole entry): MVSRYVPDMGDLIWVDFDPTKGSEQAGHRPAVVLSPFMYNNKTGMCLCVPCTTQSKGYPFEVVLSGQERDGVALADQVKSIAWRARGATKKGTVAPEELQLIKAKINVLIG

[15] = biological target: T6, Endoribonuclease toxin MazF; test: substrate-only fluorescence increase artefacts – biochemical, single-stranded RNase substrate, counter-screen for MazEF activator project, dose response (AID 588502); assay type: functional

Chain of Cytochrome P450 2C19 (P33261 whole entry): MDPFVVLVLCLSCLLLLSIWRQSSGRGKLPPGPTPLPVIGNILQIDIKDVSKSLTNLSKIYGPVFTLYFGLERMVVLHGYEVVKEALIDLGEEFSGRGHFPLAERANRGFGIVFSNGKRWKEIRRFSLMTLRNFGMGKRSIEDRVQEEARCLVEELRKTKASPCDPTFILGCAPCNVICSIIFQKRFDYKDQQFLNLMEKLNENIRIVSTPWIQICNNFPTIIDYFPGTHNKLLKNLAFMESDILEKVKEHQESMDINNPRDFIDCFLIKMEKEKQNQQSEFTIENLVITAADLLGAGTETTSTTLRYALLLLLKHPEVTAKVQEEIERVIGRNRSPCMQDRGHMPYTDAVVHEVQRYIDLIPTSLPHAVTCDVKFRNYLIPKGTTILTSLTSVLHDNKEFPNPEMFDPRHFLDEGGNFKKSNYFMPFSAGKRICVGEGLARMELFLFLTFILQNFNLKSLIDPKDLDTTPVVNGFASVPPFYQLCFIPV

## Cc1cc(C)n(-c2nc3c(c(=O)[nH]c(=O)n3C)n2CC(C)C)n1
[1]
  AC50: inconclusive
[2]
  AC50: inconclusive

## COc1ccc([N+](=O)[O-])cc1/C=N/NC(=O)CNC(=O)c1cccc(F)c1
[3]
  IC50: 10.3 µM (active)
[4]
  AC50: 87.2 µM (active)
[5]
  IC50: 6.76 µM (active)

## Cc1ccc2nc(SCC(=O)N/N=C/c3ccco3)cc(C)c2c1
[6]
  IC50: 41.8 µM (inactive)

## CCOC(=O)c1cnc2c(CC)cccc2c1NCCCN1CCOCC1
[7]
  AC50: 21.6 µM (active)

## CC1CCc2[nH]c3ccc(C(=O)N(C)CC(=O)Nc4ccccc4C(F)(F)F)cc3c2C1 (stereo not given)
[6]
  IC50: > 80 µM (inactive)

## COC(=O)C/C=C\[C@@H](C)[C@@H](/C=N\OC[C@@H](O)[C@H]1O[C@H]2OC(C)(C)O[C@H]2[C@@H]1O)OC
[2]
  AC50: inconclusive
[8]
  AC50: 5.01 µM (inconclusive)

## CCOC(=O)CCCCCC(=O)Nc1ccc2c(c1)C(=O)N([C@H](C)CO)C[C@H](C)[C@@H](CN(C)C(=O)Nc1ccccc1)OCCCC[C@@H](C)O2
[9]
  IC50: 30.8 µM (inactive)

## CC(=O)c1cc(NC(=O)c2cccc(C(F)(F)F)c2)c(=O)oc1/C=C/N(C)C
[10]
  EC50: > 300 µM (inconclusive)
[11]
  AC50: inconclusive
[12]
  EC50: 5.91 µM (active)
[8]
  AC50: 6.31 µM (inconclusive)
[13]
  EC50: > 300 µM (not active)
[14]
  EC50: > 99 µM (inactive)
[15]
  EC50: 22.2 µM (inactive)

## CN(C)c1cc(NC(=O)CNC(C)(C)C)c2ccccc2n1
[7]
  AC50: 16.4 µM (active)

## CC[C@]1(O)C[C@H]2CN(CCc3c([nH]c4ccccc34)[C@](C(=O)OC)(c3cc4c(cc3OC)N(C=O)[C@H]3[C@@](O)(C(=O)OC)[C@H](OC(C)=O)[C@@]5(CC)C=CCN6CC[C@]43[C@H]65)C2)C1
[2]
  AC50: inconclusive
